Measured values from patent US4442098A, “Pentacyclic derivatives of piperazine” (Beecham Group Limited, priority 1980, dated 1984).
Read-outs that look alike come from different tables or passages of the source.

Test system: central 5HT
Assay: inhibition of behavioural symptoms (forepaw tapping, head jerks, splayed limbs) induced by 5-methoxy-N,N-dimethyltryptamine in mice
Format: in vivo, mice (male CD-1 Charles Rine)
Details: 1 h pretreatment, 10 mg/kg ip 5-methoxy-N,N-dimethyltryptamine; for ED50: Mus musculus, 1 h, read-out: ED50 (dose of compound inhibiting the symptoms by 50%)
Protocol: Mice (.male. CD^-1 Charles Rine) are pretreated with the compounds 10 animals/group under investigation and 1 h later one group is injected with 10 mg/kg ip 5-methoxy-N,N-dimethyltryptamine (Sigma). The symptoms of forepaw tapping movements, head jerks and splayed limbs are scored: 1, present; 0, absent, giving a maximum score of 3/mouse or 30/group. Results are expressed as the percentage inhibition compared to the group treated with 5-methoxy-N,N-dimethyl tryptamine alone. The dose of compound inhibiting the symptoms by 50% is determined graphically.

Structure (SMILES)	ED50 (po, p.o.)	other results
CN1CC2CC(=NO)c3cccc4c3N2C(C1)c1ccccc1C4 (stereo not shown) [Compound 8, 1,2,3,3a,4,5,9,13b-octahydro-2-methyl-2-benzazepino[4,3,2-ij]-pyrazino[1,2-a]-5-oxaminoquinoline]	3 mg/kg	
CN1CC2CCc3cccc4c3N2C(C1)c1ccccc1C4 (stereo not shown) [Compound 6, 1,2,3,3a,4,5,9,13b Octahydro-2-methyl-2-benzazepino[4,3,2-ij]pyrazino[1,2-a]quinoline]	10 mg/kg	
CN1CC2CCc3cccc4c3N2C(C1)c1ccccc1C4 (stereo not shown) [Compound 7, 1,2,3,3a,4,5,9,13b-octahydro-2-methyl-2-benzazepino[4,3,2-ij]pyrazino[1,2-a]quinoline]		ED50 (dose of compound inhibiting the symptoms by 50%) (p.o., 60 min): 13 mg/kg
CN1CC2CC(=O)c3cccc4c3N2C(C1)c1ccccc1C4 (stereo not shown) [Compound 1, 1,2,3,3a,4,5,9,13b-Octahydro-2-methyl-2-benzazepino[4,3,2-ij]pyrazino[1,2-a]quinolin-5-one]	12 mg/kg	
CN1CC2CC(O)c3cccc4c3N2C(C1)c1ccccc1C4 (single isomer, unassigned) [Compound 3, 1,2,3,3a,4,5,9,13b-Octahydro-2-methyl-2-benzazepino[4,3,2-ij]pyrazino[1,2-a]quinolin-5-ol]	0.65 mg/kg	
CN1CC2CC(O)c3cccc4c3N2C(C1)c1ccccc1C4 (single isomer, unassigned) [Compound 4, 1,2,3,3a,4,5,9,13b-Octahydro-2-methyl-2-benzazepino[4,3,2-ij]pyrazino[1,2-a]quinolin-5-ol]		ED50 (ip, i.p.): 0.3 mg/kg
CN1CC2CC(=O)c3cccc4c3N2C(C1)c1ccccc1O4 (stereo not shown) [Compound 16, 2-methyl,1,3,4,14b-tetrahydro 4,6-ethano-2H-dibenzo[bf]pyrazino[1,2-d][1,4]oxazepin-15-one]	10 mg/kg	
